Series [1] in a line: Stability of solutions, percent remaining by HPLC. Format: physicochemical. The note with it: 150 mg/mL; LABRASOL; 24 h.
A further series in a line: Papp (Table 4). The class given is in vitro ADME.
Series [2] can be described thus: Oral half-life and peak plasma levels in rat. Format: in vivo. The source says: As used herein, bioavailability refers to the rate and extent of absorption. Methods for determining bioavailability are well known to those of skill in the art. For example, bioavailability of any of the compounds described herein can be determined empirically by administration of the compound to an animal, followed by taking blood samples over time and measuring the blood concentration of the compound. In vivo half life (t½) is defined as the time it takes for the concentration of the compound in the blood to be reduced by one-half. Estimations of the area under the curve for intravenous administration can be used to estimate the area under the curve for oral administration, yielding bioavailability data. See, e.q., Milo Gibal (1991) Biopharmaceutics and Pharmacology, 4th edition (Lea and Sediger).
Table 4 lists oral half-life, bioavailability, and in vivo activity of selected exemplary compounds. The in vivo activity was measured in a pulmonary hypertension model and is a measure of the activity of the compounds at selected dosages.

Series [3] has as its system ET-1-induced pressor response. Nature of the series: ET-1-induced pressor responses in conscious, autonomically blocked rats. Format: in vivo, rat. The settings on record: in 30 min at dosages as low as 30 mg/kg. The method, then: Animals were placed in a restrainer and allowed to regain consciousness. Thirty minutes later autonomic blockade was administered (atropine methyl nitrate, 3 mg/kg, IV, followed by propranalol, 2 mg/kg, IV). An hour later animals received a bolus injection of vehicle (0.5 ml) followed thirty minutes later by intravenous bolus administration of ET-1 (Control, 1 μg/kg). Following recovery from this challenge, test-compounds were administered by intravenous bolus administration (0.5 ml) and then re-challenged with ET-1 thirty minutes later. Results are expressed as the percent inhibition of the ET-1-induced pressor response after administration of the test compound compared to the pressor response induced by the control ET-1 challenge. In some cases a third ET-1 challenge was administered ninety minutes after administration of the test compound.

Series [4] concerns Pulmonary Hypertension model. Nature of the series: Pulmonary hypertension model, in vivo efficacy. The settings on record: Pulmonary Hypertension model. Also noted: species or system rat; key to in vivo Efficacy: ++ effective at 5 mg/kg; − no effect at 5 mg/kg; + effective at 15 mg/kg. The method, then: As used herein, efficacy refers to the maximal effect that can be produced by a compound. Efficacy can be determined by methods known to those of skill in the art. For example, it can be determined by the properties of the compound and its receptor-effector system and is reflected in the plateau of the concentration-effect curve. In vivo efficacy refers to efficacy which is determined in an animal model. For example, in vivo efficacy of the compounds described herein can be determined by amelioration of hypoxia-induced pulmonary hypertension in rat. In this context, in vivo efficacy refers to the ability of a compound to restore an elevated pulmonary artery pressure to a normal value. […] J. Physiol. […] The in vivo activity was measured in a pulmonary hypertension model and is a measure of the activity of the compounds at selected dosages.

Series [5] concerns DOCA-salt hypertensive rat. Nature of the series: Deoxycorticosterone acetate (DOCA)-salt hypertensive rat model. The class given is in vivo. How it is done:
E. Deoxycorticosterone Acetate (DOCA)-Salt Hypertensive Rat Model for Assessing in vivo Activity of Selected Compounds
Selected compounds disclosed herein have been tested for activity in the deoxycorticosterone acetate (DOCA)-salt hypertensive rat model. To perform these tests, silastic MDX4-4210 elastomer implants containing 47 mg (DOCA) were prepared according to the method of Ornmsbee et al. ((1973) the J. Pharm. Sci. 62:255-257). Briefly, DOCA is incorporated into silicon rubber implants for sustained release. To prepare the implants the DOCA is incorporated into unpolymerized silicone rubber, catalyst is added and the mixture is cast in a hemicylindrical shape.
Sprague Dawley rats (7-8 weeks old) were unilaterally nephrectomized under ketamine anesthesia and a DOCA-implant was placed on the left lateral dorsal abdomen of the animal. The rats were allowed to recover for three weeks. During recovery they were permitted free access to normal rat chow and 0.9% NaCl drinking solution in place of drinking water. The rats develop hypertension within 3 weeks.
All animals were used in the tests between 21 and 30 days post surgery. The mean arterial blood pressure in these animals ranged from 165-200 mm Hg.
On the day of experimentation, catheters were inserted under brevital anesthesia into the right femoral artery for measurement of blood pressure, and into the right femoral vein for administration of a selected compound. The animals were placed in a restrainer and allowed to recover for a minimum of 60 min or until a steady mean arterial blood pressure was recorded. At that time, the selected compound or control vehicle was administered either intravenously, as a 60 minute infusion, or orally by oral gavage. Blood pressure was recorded continuously for a further 10 hrs.

As for `Cc1cc2c(cc1CC(=O)c1sccc1S(=O)(=O)Nc1onc(C)c1Cl)OCO2` [N-(4-chloro-3-methyl-5-isoxazolyl)-2-[2-methyl-4,5-(methylenedioxy)phenylacetyl]thiophene-3-sulfonamide], the “percent remaining (HPLC)” value in series [1] was 90.1%. Besides, the Papp in the series “Papp (Table 4)” is 2.32 ×10⁻⁶ cm/s. The “Peak Plasma Levels” value in series [2] (in vivo) amounted to 173 µg/mL. Besides, the “POt½ in Rat” value in series [2] (oral) worked out at 4.1 h. In series [3], the reduction of pressure entry is listed as “about 30%”. Also, the “in vivo Efficacy” value in series [4] is given as “++”.

On to `Cc1noc(NS(=O)(=O)c2ccsc2C(=O)Cc2ccc3c(c2)OCO3)c1Cl` [N-(4-chloro-3-methyl-5-isoxazolyl)-2-[(3,4-(methylenedioxy)phenylacetyl]thiophene-3-sulfonamide], for which the “effect on blood pressure” value in series [5] is “effective in decreasing blood pressure”. Also, the reduction of pressure entry in series [3] is given as “about 30%”.

As usually defined, the Papp is a coefficient for how fast a substance crosses the barrier.
